In patent publication US20240173327A1, “NEW TREATMENT” (Verona Pharma PLC, priority 2022, published 2024):

Test system: patients aged 40-80 years with moderate to severe COPD
Assay: Multi-centre, randomized, double-blind, placebo-controlled clinical study of nebulised ensifentrine in COPD (FEV1 spirometry)
Format: in vivo
Settings: for Average change in baseline FEV1 (AUC)0-12 h at Week 12: 3 mg BID by nebuliser
Experimental: A clinical study was conducted to determine the efficacy of ensifentrine in treating COPD compared with placebo. Ensifentrine was administered by nebuliser at a dose of 3 mg twice daily (BID) for 24 weeks. The study was a multi-centre, randomized, double-blind, parallel-group, placebo-controlled trial with around 800 patients and 5:3 randomization.
The study population included patients aged 40-80 years with moderate to severe COPD (FEV1 30%-70% p.n., FEV1/forced vital capacity (FVC) ratio <0.7, with mMRC≥2). The randomization stratified (a) the use of stable background maintenance LAMA or LABA therapy use (approx. 50%. yes or no) and (b) cigarette smoking (current or former). Inhaled corticosteroid (ICS) maintenance therapy was permitted in up to 20% of patients under certain provisions.
The primary endpoint of the study was change from baseline in average FEV1 area under the curve (AUC)0-12 h post-dose at week 12. Secondary endpoints of the study included: peak FEV1 over 4 hours post-dose at Week 12; morning trough FEV1 at Week 12; and other endpoints including moderate/severe COPD exacerbations frequency over 24 Weeks.
COPD severity is derived as follows: mild: 80%<=FEV1, moderate: 50%<=FEV1<80% predicted, severe: 30%<=FEV1<50% predicted and very severe: FEV1<30% predicted, post bronchodilator dose at Screening.
Baseline FEV1 is the mean of the two measurements taken before study medication on the day of first dosing, i.e. ≤40 minutes and just prior to dosing, both pre-dose on day 1.
Average FEV1 AUC0-12 h is defined as area under the curve over 12 hours of the FEV1, divided by 12 hours.
The investigational product and placebo were provided in 2.5 mL unit dose format in an ampule and administered via a nebuliser.

In the case of `COc1cc2c(cc1OC)-c1c/c(=N\c3c(C)cc(C)cc3C)n(CCNC(N)=O)c(=O)n1CC2` [Ensifentrine, N-(2-{(2E)-9,10-dimethoxy-4-oxo-2-[(2,4,6-trimethylphenyl)imino]-6,7-dihydro-2H-pyrimido[6,1-a]isoquinolin-3(4H)-yl}ethyl)urea], the “Improvement in lung function” value (all subgroups of COPD patients in the study) is reported as “statistically significant”, the “Improving lung function in moderate COPD” value (moderate COPD patients) is reported as “particularly effective” and the “Average change in baseline FEV1 (AUC)0-12 h at Week 12” value (patients with moderate COPD) is reported as 139 mL. The “Average change in baseline FEV1 (AUC)0-12 h at Week 12” value (patients with severe COPD) was 45 mL.
